The source made the active and inactive calls.
Legend:
[1] = target: Lysosomal acid glucosylceramidase (Homo sapiens, UniProt P04062); experiment: Dose response cell-based high throughput screening assay to identify enhancers of beta-glucosidase activity. [Related pubchem assays: 784 ]; type: functional
[2] = target: Eukaryotic translation initiation factor 4H (Homo sapiens, UniProt Q15056); experiment: human eIF4H binding inhibitors, primary screen, translation initiation inhibitor project, biochemical, uHTS, fluorescence polarization (AID 2012)
[3] = target: Polyadenylate-binding protein 1 (Homo sapiens, UniProt P11940); experiment: PABP poly(A) RNA binding inhibitors, primary screen, biochemical, fluorescence polarization, uHTS (AID 2014)
Aspartyl aminopeptidase = Aspartyl aminopeptidase (Plasmodium falciparum 3D7, UniProt Q8I2J3)
Procathepsin L = Procathepsin L (Homo sapiens, UniProt P07711)
[4] = target: T1, Voltage-gated N-type calcium channel alpha-1B subunit/Amyloid beta A4 precursor protein-binding family A member 1 (Homo sapiens, UniProt Q00975+Q02410); experiment: disruptors of Mint-PDZ/N-type channel peptide interaction – biochemical, HTRF, set 2, SAR follow-up (AID 434980); type: functional
[5] = target: T1, Voltage-gated N-type calcium channel alpha-1B subunit/Amyloid beta A4 precursor protein-binding family A member 1; experiment: disruptors of Mint-PDZ/N-type channel peptide interaction – biochemical, HTRF, SAR follow-up (AID 2489); type: functional
[6] = target: Glucose-6-phosphate 1-dehydrogenase (Homo sapiens, UniProt P11413); experiment: human G6PD enzyme inhibitors, dose response, selectivity assay for P. falciparum G6PD inhibitor project, biochemical, fluorescence (AID 504792); type: functional
[7] = target: Cystic fibrosis transmembrane conductance regulator/Golgi-associated PDZ and coiled-coil motif-containing protein (Homo sapiens, UniProt P13569+Q9HD26); experiment: CAL PDZ peptide-binding inhibitors, dose response, biochemical, fluorescence polarization, Cerulean-tagged CAL PDZ, cherry-picks (AID 504773)
Nonstructural protein 1 = Nonstructural protein 1 (Influenza A virus, UniProt Q194T2); type: functional, Influenza A virus (A/California/07/2009(H1N1))
[8] = target: Mitochondrial peptide methionine sulfoxide reductase (Bos taurus, UniProt P54149); experiment: Absorbance-based biochemical high throughput dose response assay for activators of Methionine sulfoxide reductase A (MsrA).; type: functional
[9] = HeLa cell cytotoxicity, dose response, cytotoxicity control for MgcRacGAP inhibitor project (AID 624300); type: functional
[10] = target: T2, Rac GTPase-activating protein 1 (Homo sapiens, UniProt Q9H0H5); experiment: MgcRacGAP GTPase-activating activity inhibitors, confirmation, biochemical, ADP Hunter fluorescence, primary and confirmatory (AID 624330); type: functional
T2 sequence (Q9H0H5 whole entry): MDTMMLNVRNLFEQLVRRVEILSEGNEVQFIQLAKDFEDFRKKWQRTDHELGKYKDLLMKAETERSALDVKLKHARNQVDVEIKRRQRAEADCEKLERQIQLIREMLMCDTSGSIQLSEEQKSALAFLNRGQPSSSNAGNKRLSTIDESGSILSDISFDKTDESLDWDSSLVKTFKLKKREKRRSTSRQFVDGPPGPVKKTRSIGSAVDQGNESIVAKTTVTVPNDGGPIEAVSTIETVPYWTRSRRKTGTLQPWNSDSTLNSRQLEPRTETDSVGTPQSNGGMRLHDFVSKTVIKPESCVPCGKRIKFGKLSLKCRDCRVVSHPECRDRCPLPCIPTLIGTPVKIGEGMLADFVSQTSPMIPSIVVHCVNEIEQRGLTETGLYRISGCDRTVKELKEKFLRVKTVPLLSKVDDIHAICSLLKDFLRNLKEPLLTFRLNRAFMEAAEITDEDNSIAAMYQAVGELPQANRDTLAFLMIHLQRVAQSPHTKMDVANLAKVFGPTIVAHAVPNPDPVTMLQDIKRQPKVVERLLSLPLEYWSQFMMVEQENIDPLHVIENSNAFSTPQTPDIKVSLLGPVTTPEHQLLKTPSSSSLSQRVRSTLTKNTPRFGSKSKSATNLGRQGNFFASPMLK

[11] = target: T3, Kappa-type opioid receptor (Homo sapiens, UniProt P41145); experiment: SAR analysis of Antagonists of the Kappa Opioid Receptor (KOR) using an Image-Based Assay - Set 2. [Related pubchem assays (depositor defined):AID1777, AID1785, AID1786, AID1966, AID2133, AID2136, AID2284, AID2285, AID2348]; type: functional
[12] = target: T3, Kappa-type opioid receptor; experiment: SAR analysis of small molecule agonists of the kappa opioid receptor via a luminescent beta-arrestin assay - Set 2. [Related pubchem assays (depositor defined):AID1777, AID1785, AID1786, AID1966, AID2133, AID2136, AID2284, AID449737]; type: functional
[13] = target: Delta-type opioid receptor (Homo sapiens, UniProt P41143); experiment: SAR Analysis of Antagonists of the DOR Receptor using an Image-Based Assay - Set 2. [Related pubchem assays (depositor defined):AID1777, AID1785, AID1786, AID1966, AID2133, AID2136, AID2284, AID2285, AID2357]; type: functional
[14] = Luminescence Cell Based Dose Confirmation HTS to Identify Activators of 5'UTR Stem-Loop Driven Alpha-Synuclein mRNA Translation in H4 Neuroglioblastoma Cells. [Related pubchem assays (depositor defined):AID1813, AID1829]; type: functional; conditions: Homo sapiens
[15] = target: T4, Small ubiquitin-related modifier 1 (Homo sapiens, UniProt P63165); experiment: inhibitors of SUMO1 peptide binding, dose response, biochemical, fluorescence polarization, uHTS hits (AID 624382); type: functional; conditions: read-out: IC50_Mean
[16] = target: T4, Small ubiquitin-related modifier 1; experiment: inhibitors of SUMO1 partner interactions, dose response, biochemical, FRET (AID 624383); type: functional; conditions: read-out: IC50_Mean

T4 sequence (P63165 whole entry): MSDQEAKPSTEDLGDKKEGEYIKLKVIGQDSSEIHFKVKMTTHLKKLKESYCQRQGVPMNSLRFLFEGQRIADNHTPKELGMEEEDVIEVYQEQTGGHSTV
T1 sequence (Q00975 whole entry): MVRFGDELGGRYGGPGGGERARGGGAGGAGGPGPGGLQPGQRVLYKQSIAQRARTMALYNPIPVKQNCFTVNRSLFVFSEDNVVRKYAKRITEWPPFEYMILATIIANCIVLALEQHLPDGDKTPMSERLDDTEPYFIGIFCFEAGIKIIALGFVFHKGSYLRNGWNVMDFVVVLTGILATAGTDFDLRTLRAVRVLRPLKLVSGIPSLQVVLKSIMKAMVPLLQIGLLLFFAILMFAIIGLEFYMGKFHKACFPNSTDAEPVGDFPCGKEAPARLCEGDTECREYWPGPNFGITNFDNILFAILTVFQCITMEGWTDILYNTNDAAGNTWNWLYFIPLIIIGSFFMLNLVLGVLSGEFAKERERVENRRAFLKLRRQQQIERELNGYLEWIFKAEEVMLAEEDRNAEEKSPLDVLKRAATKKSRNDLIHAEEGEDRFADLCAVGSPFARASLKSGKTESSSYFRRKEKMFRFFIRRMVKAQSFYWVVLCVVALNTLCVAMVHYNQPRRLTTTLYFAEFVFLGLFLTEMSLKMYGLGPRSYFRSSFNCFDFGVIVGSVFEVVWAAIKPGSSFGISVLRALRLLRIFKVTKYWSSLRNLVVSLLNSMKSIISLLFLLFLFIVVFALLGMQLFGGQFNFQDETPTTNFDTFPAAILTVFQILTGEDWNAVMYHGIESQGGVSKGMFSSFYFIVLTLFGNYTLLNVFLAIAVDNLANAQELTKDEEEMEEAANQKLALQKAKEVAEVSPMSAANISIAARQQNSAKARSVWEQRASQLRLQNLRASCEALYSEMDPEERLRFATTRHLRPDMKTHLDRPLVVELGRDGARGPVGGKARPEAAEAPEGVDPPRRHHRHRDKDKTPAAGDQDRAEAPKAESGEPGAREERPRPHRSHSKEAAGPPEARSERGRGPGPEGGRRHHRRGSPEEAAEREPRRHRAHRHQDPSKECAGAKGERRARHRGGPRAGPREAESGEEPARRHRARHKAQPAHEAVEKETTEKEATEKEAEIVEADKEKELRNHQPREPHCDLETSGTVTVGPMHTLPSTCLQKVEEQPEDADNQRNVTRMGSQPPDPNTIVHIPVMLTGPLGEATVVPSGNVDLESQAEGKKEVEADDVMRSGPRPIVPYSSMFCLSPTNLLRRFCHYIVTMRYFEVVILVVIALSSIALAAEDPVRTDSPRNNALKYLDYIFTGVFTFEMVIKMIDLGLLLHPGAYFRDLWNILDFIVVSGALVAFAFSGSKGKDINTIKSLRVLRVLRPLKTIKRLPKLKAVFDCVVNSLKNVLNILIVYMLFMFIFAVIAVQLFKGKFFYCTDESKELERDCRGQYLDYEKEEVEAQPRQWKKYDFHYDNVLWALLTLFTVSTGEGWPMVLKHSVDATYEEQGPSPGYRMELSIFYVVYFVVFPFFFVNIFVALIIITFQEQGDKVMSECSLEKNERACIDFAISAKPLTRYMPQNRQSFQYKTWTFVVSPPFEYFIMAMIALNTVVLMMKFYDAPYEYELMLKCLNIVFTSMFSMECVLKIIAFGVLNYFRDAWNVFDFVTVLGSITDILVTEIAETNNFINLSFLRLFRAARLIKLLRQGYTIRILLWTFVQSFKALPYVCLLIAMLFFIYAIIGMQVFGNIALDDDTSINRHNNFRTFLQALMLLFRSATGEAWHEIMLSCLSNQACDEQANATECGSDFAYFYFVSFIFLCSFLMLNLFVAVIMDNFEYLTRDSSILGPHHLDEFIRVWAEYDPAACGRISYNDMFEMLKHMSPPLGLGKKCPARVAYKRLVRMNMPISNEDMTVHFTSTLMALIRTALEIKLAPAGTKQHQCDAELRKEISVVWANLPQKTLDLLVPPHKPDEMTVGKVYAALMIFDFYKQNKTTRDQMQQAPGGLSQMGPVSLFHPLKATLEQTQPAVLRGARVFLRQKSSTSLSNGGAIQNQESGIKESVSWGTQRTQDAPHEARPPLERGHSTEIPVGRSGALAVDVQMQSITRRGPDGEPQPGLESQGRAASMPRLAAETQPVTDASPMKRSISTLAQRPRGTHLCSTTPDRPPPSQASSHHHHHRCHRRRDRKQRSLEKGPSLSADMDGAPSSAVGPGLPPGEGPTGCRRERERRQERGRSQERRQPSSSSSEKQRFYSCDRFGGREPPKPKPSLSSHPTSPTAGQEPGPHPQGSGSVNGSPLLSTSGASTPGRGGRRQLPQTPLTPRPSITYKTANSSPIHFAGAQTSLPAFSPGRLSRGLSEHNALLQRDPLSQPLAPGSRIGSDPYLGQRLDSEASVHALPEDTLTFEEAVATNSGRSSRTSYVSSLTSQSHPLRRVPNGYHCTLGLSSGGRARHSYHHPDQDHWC
T1 sequence (Q02410 whole entry): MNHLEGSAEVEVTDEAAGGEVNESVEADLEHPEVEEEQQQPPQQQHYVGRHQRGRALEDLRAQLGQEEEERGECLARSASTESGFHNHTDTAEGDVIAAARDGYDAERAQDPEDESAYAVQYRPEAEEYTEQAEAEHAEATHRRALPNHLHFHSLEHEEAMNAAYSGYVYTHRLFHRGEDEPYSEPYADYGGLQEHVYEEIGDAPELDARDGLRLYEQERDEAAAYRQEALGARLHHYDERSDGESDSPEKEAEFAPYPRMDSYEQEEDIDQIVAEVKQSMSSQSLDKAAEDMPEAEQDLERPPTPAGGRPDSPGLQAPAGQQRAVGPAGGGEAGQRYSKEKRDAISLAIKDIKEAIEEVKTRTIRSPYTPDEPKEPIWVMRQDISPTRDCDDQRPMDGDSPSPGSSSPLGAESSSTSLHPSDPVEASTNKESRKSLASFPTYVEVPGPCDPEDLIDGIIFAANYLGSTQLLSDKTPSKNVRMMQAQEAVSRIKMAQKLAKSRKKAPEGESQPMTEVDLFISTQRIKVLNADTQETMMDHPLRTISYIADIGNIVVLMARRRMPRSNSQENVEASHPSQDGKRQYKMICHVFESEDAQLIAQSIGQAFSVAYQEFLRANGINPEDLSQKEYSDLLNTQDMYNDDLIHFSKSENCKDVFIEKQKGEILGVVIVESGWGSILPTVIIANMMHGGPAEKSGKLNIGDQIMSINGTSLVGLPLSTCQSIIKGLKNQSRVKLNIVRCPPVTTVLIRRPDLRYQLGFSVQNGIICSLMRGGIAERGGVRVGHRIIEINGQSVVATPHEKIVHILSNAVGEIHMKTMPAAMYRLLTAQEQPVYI
T3 sequence (P41145 whole entry): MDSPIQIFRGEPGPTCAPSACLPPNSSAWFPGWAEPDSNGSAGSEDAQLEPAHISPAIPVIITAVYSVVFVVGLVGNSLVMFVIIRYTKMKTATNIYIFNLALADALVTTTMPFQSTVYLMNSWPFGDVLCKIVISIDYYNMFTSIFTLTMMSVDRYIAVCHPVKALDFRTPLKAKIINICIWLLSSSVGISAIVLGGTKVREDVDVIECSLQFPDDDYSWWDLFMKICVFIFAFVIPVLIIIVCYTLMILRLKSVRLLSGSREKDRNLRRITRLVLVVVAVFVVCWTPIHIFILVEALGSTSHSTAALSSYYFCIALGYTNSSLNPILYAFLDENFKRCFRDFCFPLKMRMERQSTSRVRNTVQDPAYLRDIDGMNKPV
Sequence of Delta-type opioid receptor (P41143 whole entry): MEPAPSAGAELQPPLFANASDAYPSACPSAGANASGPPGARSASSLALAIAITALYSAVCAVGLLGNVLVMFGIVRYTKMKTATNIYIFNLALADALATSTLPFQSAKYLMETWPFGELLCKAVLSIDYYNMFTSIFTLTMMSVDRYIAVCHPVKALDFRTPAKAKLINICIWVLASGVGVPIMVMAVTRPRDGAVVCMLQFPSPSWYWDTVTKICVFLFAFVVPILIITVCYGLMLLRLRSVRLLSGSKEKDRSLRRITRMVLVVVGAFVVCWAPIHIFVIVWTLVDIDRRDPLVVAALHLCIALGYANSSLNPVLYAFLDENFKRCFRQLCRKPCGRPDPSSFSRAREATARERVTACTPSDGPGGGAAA
Sequence of Polyadenylate-binding protein 1 (P11940 whole entry): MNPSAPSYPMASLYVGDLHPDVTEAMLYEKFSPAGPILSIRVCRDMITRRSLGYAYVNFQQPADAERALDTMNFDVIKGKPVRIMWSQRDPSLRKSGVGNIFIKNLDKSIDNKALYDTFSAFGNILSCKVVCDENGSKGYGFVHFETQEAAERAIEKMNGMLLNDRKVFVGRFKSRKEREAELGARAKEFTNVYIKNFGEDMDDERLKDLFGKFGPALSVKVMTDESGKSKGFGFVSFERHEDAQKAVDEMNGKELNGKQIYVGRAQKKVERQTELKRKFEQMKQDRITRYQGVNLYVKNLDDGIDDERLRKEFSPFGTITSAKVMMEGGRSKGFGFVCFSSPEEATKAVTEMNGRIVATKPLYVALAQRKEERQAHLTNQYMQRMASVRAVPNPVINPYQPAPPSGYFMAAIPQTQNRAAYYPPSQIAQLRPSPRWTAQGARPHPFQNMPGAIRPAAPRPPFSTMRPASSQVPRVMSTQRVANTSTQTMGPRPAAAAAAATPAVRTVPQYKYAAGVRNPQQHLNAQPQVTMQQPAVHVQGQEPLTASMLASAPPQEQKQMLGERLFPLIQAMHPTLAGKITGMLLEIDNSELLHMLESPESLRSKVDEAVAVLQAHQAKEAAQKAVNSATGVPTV

CCOC(=O)C1(Cc2ccc(O)cc2)NC(c2ccccc2F)C2C(=O)N(C)C(=O)C21 (centres undefined)
EC50 [1]: > 50 µM (not active)

COC(=O)c1c(NC(=O)/C=C/c2ccco2)sc2c1CCC2
IC50 [2]: 50.4 µM (active)
IC50 [3]: > 100 µM (inactive)

COC(=O)CN(n1cnnc1)S(=O)(=O)c1ccccc1
IC50 (Aspartyl aminopeptidase): 0.497 µM (active)
IC50 (Procathepsin L): > 59.6 µM (not active)

COc1ccccc1CCNC(=O)c1cc(-c2ccco2)nc2ccccc12
IC50 [4]: 25.8 µM (active)
IC50 [5]: > 56.8 µM (inactive)

CN(C)c1ccc(C=c2c3cc(O)ccc3n3c2cc(-c2ccccc2)[n+]3C)cc1
IC50 [6]: > 80 µM (inactive)
AC50 [7]: 44.6 µM (active)
IC50 (Nonstructural protein 1): 3.76 µM (active)
EC50 [8]: > 104 µM (inactive)
CC50 [9]: 50.7 µM (active)
IC50 [10]: 20.1 µM (active)

CC[C@@](C)(C(=O)NC1CCCCC1)N(Cc1ccco1)C(=O)c1ccccn1
IC50 [11]: > 32 µM (inactive)
EC50 [12]: 0.128 µM (active)
IC50 [13]: > 32 µM (inactive)

Fc1ccc(Nc2nnc(-c3ccncc3)s2)cc1Cl
EC50 [14]: 12 µM (active)
IC50 [15]: > 66.6 µM (inactive)
IC50 [16]: 100 µM (inactive)

From ChEMBL document CHEMBL1201862, “PubChem BioAssay data set” (2004)
